The values that follow come from US20250115598A1 (Anaxis Pharma Pty Ltd, priority 2021, published 2025).

Read-outs that look alike come from different tables or passages of the source. Where only a bound is given, the exact number is not on record here.

The test system of test [1] is Immortalised Mouse Dermal Fibroblasts (MDFs). The test can be described thus: Cellular assay: inhibition of TSI induced necroptosis, CellTitre-Glo viability. Particulars: MDF, 3 hours TSI cocktail, read-out: Inhibition of TSI-induced necroptosis (IC50 cell-based assay) in MDF. In a few lines: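 Necroptosis induced for 3 h with TSI: rhTNF 100 ng/ml, Smac mimetic 500 nM, caspase inhibitor IDN-6556 10 μM. Mouse dermal fibroblasts had received compound (36 μM top, ten three-fold steps) 30 min beforehand. ATP-based viability scaled between untreated and TSI-only wells; IC50 taken as 4-parameter curve inflection.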

The target in a further test is endogenous MLKL in U937 (Homo sapiens (Human), UniProt Q8NB16). Put plainly: Degradation assay: endogenous MLKL in U937 (western blot). The note with it: U937, 24 h incubation, read-out: Degradation of endogenous MLKL in U937 (DC50 cell-based assay). An outline of the steps:
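Western blot band intensity of MLKL, adjusted to GAPDH loading and normalized to DMSO-only wells, gave percent degradation. Compound exposure lasted 24 h at final concentrations of 10–0.016 μM in 1:5 steps, in mouse dermal fibroblasts or human U937 cells.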

Setting [2] is: Mus musculus, Fibroblast, Table 27.

Sequence of endogenous MLKL in U937 (Q8NB16 whole entry): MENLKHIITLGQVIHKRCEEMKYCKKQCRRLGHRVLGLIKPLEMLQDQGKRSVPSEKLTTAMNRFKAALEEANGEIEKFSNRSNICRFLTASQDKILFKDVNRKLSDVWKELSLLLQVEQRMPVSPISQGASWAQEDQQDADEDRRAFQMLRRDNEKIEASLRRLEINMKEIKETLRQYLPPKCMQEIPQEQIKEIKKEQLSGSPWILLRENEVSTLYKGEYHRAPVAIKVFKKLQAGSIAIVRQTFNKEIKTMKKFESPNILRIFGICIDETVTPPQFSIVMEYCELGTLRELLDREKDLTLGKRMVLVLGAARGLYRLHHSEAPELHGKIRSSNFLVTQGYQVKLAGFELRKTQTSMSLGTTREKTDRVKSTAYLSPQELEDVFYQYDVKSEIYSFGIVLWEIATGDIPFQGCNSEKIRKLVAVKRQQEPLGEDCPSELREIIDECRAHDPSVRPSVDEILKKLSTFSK

With `Nc1ncc(-c2cnn(C3CCOCC3)c2)c2[nH]nc(-c3ccc(NS(=O)(=O)C(F)F)c(OCc4cccc(Cl)c4)c3)c12` [Compound 131], the IC50 in test [1] (Table 24) was in the range of 1000 to 10000 nM.
In the case of `Cc1ncsc1-c1ccc(CNC(=O)[C@@H]2C[C@@H](O)CN2C(=O)[C@@H](NC(=O)COCCN2CCCC(n3cc(-c4cnc(N)c5c(-c6ccc(NS(=O)(=O)C(F)F)c(O[C@@H](C)c7ccc(F)cc7)c6)nn(C)c45)cn3)C2)C(C)(C)C)cc1` (stereo partly drawn) [Compound 1015, (2S,4R)-1-[(2S)-2-(2-{2-[3-(4-{4-amino-3-[4-(difluoromethanesulfonamido)-3-[(1S)-1-(4-fluorophenyl)ethoxy]phenyl]-1-methyl-1H-pyrazolo[4,3-c]pyridin-7-yl}-1H-pyrazol-1-yl)piperidin-1-yl]ethoxy}acetamido)-3,3-dimethylbutanoyl]-4-hydroxy-N-{[4-(4-methyl-1,3-thiazol-5-yl)phenyl]methyl}pyrrolidine-2-carboxamide], in test [1] (setting [2]), the concentration for half-maximal inhibition (IC50) is 1000 to 10000 nM. The DC50 at endogenous MLKL in U937 fell in the range of 1000 to 10000 nM.
As for `C[C@H](Oc1cc(-c2nn(C)c3c(-c4cnn(CCCCCCCOc5cccc6c5C(=O)N(C5CCC(=O)NC5=O)C6=O)c4)cnc(N)c23)ccc1NS(=O)(=O)C(F)F)c1ccc(F)cc1` (stereo partly drawn) [Compound 1031, N-(4-{4-amino-7-[1-(7-{[2-(2,6-dioxopiperidin-3-yl)-1,3-dioxo-2,3-dihydro-1H-isoindol-4-yl]oxy}heptyl)-1H-pyrazol-4-yl]-1-methyl-1H-pyrazolo[4,3-c]pyridin-3-yl}-2-[(1 S)-1-(4-fluorophenyl)ethoxy]phenyl)-1,1-difluoromethanesulfonamide], the IC50 in test [1] (setting [2]) is less than 1000 nM.
In the case of `Cc1ncsc1-c1ccc(CNC(=O)[C@@H]2C[C@@H](O)CN2C(=O)[C@@H](NC(=O)COCCOCCn2cc(-c3cnc(N)c4c(-c5ccc(NS(=O)(=O)C(F)F)c(O[C@@H](C)c6ccc(F)cc6)c5)nn(C)c34)cn2)C(C)(C)C)cc1` [Compound 1006, (2S,4R)-1-[(2S)-2-(2-{2-[2-(4-{4-amino-3-[4-(difluoromethanesulfonamido)-3-[(1S)-1-(4-fluorophenyl)ethoxy]phenyl]-1-methyl-1H-pyrazolo[4,3-c]pyridin-7-yl}-1H-pyrazol-1-yl)ethoxy]ethoxy}acetamido)-3,3-dimethylbutanoyl]-4-hydroxy-N-{[4-(4-methyl-1,3-thiazol-5-yl)phenyl]methyl}pyrrolidine-2-carboxamide], in test [1] (setting [2]), the IC50 lay in the range of 1000 to 10000 nM. The DC50 on endogenous MLKL in U937 is less than 1000 nM.
In the same order, the values of `Cc1ncsc1-c1ccc(CNC(=O)[C@@H]2C[C@@H](O)CN2C(=O)[C@@H](NC(=O)CCN2CCCC(n3cc(-c4cnc(N)c5c(-c6ccc(NS(=O)(=O)C(F)F)c(O[C@@H](C)c7ccc(F)cc7)c6)nn(C)c45)cn3)C2)C(C)(C)C)cc1` (stereo partly drawn) [Compound 1014, (2S,4R)-1-[(2S)-2-{3-[3-(4-{4-amino-3-[4-(difluoromethanesulfonamido)-3-[(1S)-1-(4-fluorophenyl)ethoxy]phenyl]-1-methyl-1H-pyrazolo[4,3-c]pyridin-7-yl}-1H-pyrazol-1-yl)piperidin-1-yl]propanamido}-3,3-dimethylbutanoyl]-4-hydroxy-N-{[4-(4-methyl-1,3-thiazol-5-yl)phenyl]methyl}pyrrolidine-2-carboxamide] are 1000 to 10000 nM and less than 1000 nM.
`Cc1ncsc1-c1ccc(CNC(=O)[C@@H]2C[C@@H](O)CN2C(=O)[C@@H](NC(=O)COCCN2CCC(n3cc(-c4cnc(N)c5c(-c6ccc(NS(=O)(=O)C(F)F)c(O[C@@H](C)c7ccc(F)cc7)c6)nn(C)c45)cn3)CC2)C(C)(C)C)cc1` [Compound 1018, (2S,4R)-1-[(2S)-2-(2-{2-[4-(4-{4-amino-3-[4-(difluoromethanesulfonamido)-3-[(1S)-1-(4-fluorophenyl)ethoxy]phenyl]-1-methyl-1H-pyrazolo[4,3-c]pyridin-7-yl}-1H-pyrazol-1-yl)piperidin-1-yl]ethoxy}acetamido)-3,3-dimethylbutanoyl]-4-hydroxy-N-{[4-(4-methyl-1,3-thiazol-5-yl)phenyl]methyl}pyrrolidine-2-carboxamide]: in test [1] (setting [2]), the IC50 fell in the range of 1000 to 10000 nM.
In the case of `Cc1ncsc1-c1ccc(CNC(=O)[C@@H]2C[C@@H](O)CN2C(=O)[C@@H](NC(=O)CCCCCCn2cc(-c3cnc(N)c4c(-c5ccc(NS(=O)(=O)C(F)F)c(O[C@@H](C)c6ccc(F)cc6)c5)nn(C)c34)cn2)C(C)(C)C)cc1` [Compound 1008, (2S,4R)-1-[(2S)-2-[7-(4-{4-amino-3-[4-(difluoromethanesulfonamido)-3-[(1 S)-1-(4-fluorophenyl)ethoxy]phenyl]-1-methyl-1H-pyrazolo[4,3-c]pyridin-7-yl}-1H-pyrazol-1-yl)heptanamido]-3,3-dimethylbutanoyl]-4-hydroxy-N-{[4-(4-methyl-1,3-thiazol-5-yl)phenyl]methyl}pyrrolidine-2-carboxamide], the IC50 in test [1] (setting [2]) is less than 1000 nM. For the same compound, the DC50 on endogenous MLKL in U937 is less than 1000 nM.
“N-(4-(4-amino-1-methyl-7-(1-(1,2,2-trimethylpiperidin-4-yl)-1H-pyrazol-4-yl)-1H-pyrazolo[4,3-c]pyridin-3-yl)-2-((S)-1-(4-fluorophenyl)ethoxy)phenyl)-1,1-difluoromethanesulfonamide [Compound 113]”: in test [1] (Table 24), the IC50 is less than 1000 nM.
